These results are taken from patent US20020182239A1, “Composition and method for inhibiting polar capsule discharge and protecting a subject from nematocyst sting” (priority 2002, published 2002).

SMILES strings stand for the structures. Where two headings read alike, the source gives them in different places.

Experiment [1] has as its system isolated nematocyst capsules. The following applies: 50 mM CaCl2; cited from earlier work.
Experiment [2] relates to jellyfish Rhopilema nomadica nematocysts.

As to `[Ca+2].[Cl-].[Cl-]` [CaCl2], the “discharge of isolated nematocyst capsules” value in experiment [1] was “do not discharge”.

Consider `C=O` [formalin], for which the “nematocysts in skin treated with ointment base alone relative to skin treated with formalin” value in experiment [2] (0.1% formalin) is “more than 5 times”. Further, the “decrease in nematocysts skin penetration” value in experiment [2] (0.1% formalin in ointment base vs ointment base alone) is on record as “over 80%”. Further, the “nematocyst discharge and skin penetration” value is “reduces nematocyst discharge and skin penetration” in experiment [2] (formalin concentration 0.01%); “reduces nematocyst discharge and skin penetration” in experiment [2] (formalin concentration 0.05%). Also, the “average number of nematocysts counted on a skin sample” value in experiment [2] (ointment base containing 0.1% formalin, human skin sections, tentacles 10 seconds) is on record as 5+/−4 nematocysts.
